The values that follow come from US20210317112A1, “HETEROCYCLIC COMPOUNDS AS PESTICIDES” (Bayer Aktiengesellschaft, priority 2017, published 2021).

Common to all, as to format: in vivo
In assay [1] the test system is southern green stink bug (Nezara viridula). Put plainly: whole plant or invertebrate. As to conditions: in Hordeum vulgare, 96 h, read-out: mortality in %. The method, then: Nezara viridula—Spray Test Solvent: 52.5 parts by weight of acetone • 7 parts by weight of dimethylformamide Emulsifier: alkylaryl polyglycolether
To produce a suitable preparation of active compound, 1 part by weight of active compound is mixed with the stated amount of solvent, and the concentrate is diluted with water, containing an emulsifier concentration of 1000 ppm, to the desired concentration. Ammonium salt and/or penetration enhancer in a dosage of 1000 ppm are added to the desired concentration if necessary.
(§1) Barley plants (Hordeum vulgare) infested with larvae of the southern green stink bug (Nezara viridula) are sprayed with a test solution containing the desired concentration of the active ingredient.
(§2) After 4 days mortality in % is determined. 100% means all the stink bugs have been killed; 0% means none of the stink bugs have been killed.

The test system of assay [2] is brown planthopper (Nilaparvata lugens). Put plainly: Nilaparvata lugens spray test (solvent 52.5 acetone / 7 DMF). As to conditions: 96 h, application rate 500 g/ha, rice plants, after 4 days. The protocol:
Nilaparvata lugens—Spray Test Solvent: 52.5 parts by weight of acetone • 7 parts by weight of dimethylformamide Emulsifier: alkylaryl polyglycolether
To produce a suitable preparation of active compound, 1 part by weight of active compound is mixed with the stated amount of solvents and is diluted with water, containing an emulsifier concentration of 1000 ppm, to the desired concentration. Further test concentrations are prepared by dilution with emulsifier containing water. Ammonium salt and/or penetration enhancer in a dosage of 1000 ppm are added to the desired concentration if necessary.
Rice plants (Oryza sativa) are treated by being sprayed with the desired concentration of the active compound and are infested with larvae of the brown planthopper (Nilaparvata lugens).
(§3) After 4 days mortality in % is determined. 100% means all planthoppers have been killed and 0% means none of the planthoppers have been killed.

Assay [3] has as its system mustard beetle larvae (Phaedon cochleariae). Put plainly: Phaedon cochleariae spray test. As to conditions: in Brassica rapa, foliar, 168 h, read-out: mortality in %. The method, then:
Phaedon cochleariae—Spray Test Solvent: 78.0 parts by weight of acetone • • 1.5 parts by weight of dimethylformamide Emulsifier: alkylarylpolyglycol ether
(§4) To produce a suitable preparation of active compound, 1 part by weight of active compound is mixed with the stated amount of solvents and is diluted with water, containing an emulsifier concentration of 1000 ppm, to the desired concentration. Further test concentrations are prepared by dilution with emulsifier containing water.
Chinese cabbage (Brassica pekinensis) leaf disks are sprayed with a preparation of the active ingredient of the desired concentration. Once dry, the leaf disks are infested with mustard beetle larvae (Phaedon cochleariae).
After 7 days mortality in % is determined. 100% means all beetle larvae have been killed and 0% means none of the beetle larvae have been killed.

For assay [4], the system named is two spotted spidermite (Tetranychus urticae). Put plainly: whole plant or invertebrate. As to conditions: in Phaseolus vulgaris, foliar, 144 h, read-out: mortality in %. The method, then: Tetranychus urticae—Spray Test OP-Resistant Solvent: 78.0 parts by weight acetone • 1.5 parts by weight dimethylformamide Emulsifier: alkylarylpolyglycol ether
as §4
French bean (Phaseolus vulgaris) leaf disks infected with all instars of the two spotted spidermite (Tetranychus urticae), are sprayed with a preparation of the active ingredient of the desired concentration.
After 6 days mortality in % is determined. 100% means all spider mites have been killed and 0% means none of the spider mites have been killed.

Assay [5] has as its system brown planthopper (Nilaparvata lugens). Put plainly: Nilaparvata lugens spray test (solvent 78.0 acetone / 1.5 DMF). The note with it: 96 h, application rate 500 g/ha, rice plants, after 4 days. The method, then: Nilaparvata lugens—Spray Test Solvent: 78.0 parts by weight of acetone • • 1.5 parts by weight of dimethylformamide Emulsifier: alkylarylpolyglycol ether
as §4
Rice plants (Oryza sativa) are sprayed with a preparation of the active ingredient of the desired concentration and the plants are infested with the brown planthopper (Nilaparvata lugens).
as §3

The subject of assay [6] is southern green stink bug (Nezara viridula). Put plainly: whole plant or invertebrate. The note with it: in Hordeum vulgare, 96 h, read-out: mortality in %. The protocol:
Nezara viridula—Spray Test Solvent: 78.0 parts by weight of acetone • • 1.5 parts by weight of dimethylformamide Emulsifier: alkylarylpolyglycol ether
To produce a suitable preparation of active compound, 1 part by weight of active compound is mixed with the stated amount of solvent, and the concentrate is diluted with water, containing an emulsifier concentration of 1000 ppm, to the desired concentration. Further test concentrations are prepared by dilution with emulsifier containing water.
as §1, §2
The source holds these as a separate data set.

Assay [7] relates to green peach aphid (Myzus persicae). Put plainly: whole plant or invertebrate. As to conditions: po, 120 h, read-out: mortality in %. The method, then: Myzus persicae—Oral Test Solvent: 100 parts by weight acetone
To produce a suitable preparation of active compound, 1 part by weight of active compound is mixed with the stated amount of solvent, and the concentrate is diluted with water to the desired concentration. 50 μl compound solution is filled in microtiter plates and 150 μl IPL41 insect medium (33%+15% sugar) is added to obtain a total volume of 200 μper well. Afterwards the plates are sealed with parafilm through which a mixed population of the green peach aphid (Myzus persicae) can suck on the compound preparation.
(§5) After 5 days mortality in % is determined. 100% means all aphids have been killed and 0% means none of the aphids have been killed.

Assay [8] shares this test system. Put plainly: Myzus persicae spray test. The note with it: in Brassica rapa, foliar, 120 h, read-out: mortality in %. The method, then:
Myzus persicae—spray test Solvent: 78.0 parts by weight acetone • 1.5 parts by weight dimethylformamide Emulsifier: alkylarylpolyglycol ether
as §4
Chinese cabbage (Brassica pekinensis) leaf disks infected with all instars of the green peach aphid (Myzus persicae), are sprayed with a preparation of the active ingredient of the desired concentration.
as §5

Read-outs that look alike come from different tables or passages of the source.

For orientation: mortality means the share of the test organisms that died. For the compound `O=C(Nc1nc(-c2c(F)cccc2F)no1)c1cccnc1C(F)(F)F` [Compound I-1-1, N-[3-(2,6-Difluorophenyl)-1,2,4-oxadiazol-5-yl]-2-(trifluoromethyl)nicotinamide], the mortality at 100 g/ha in assay [1] and in assay [3] was 100% in each case. Moreover, the mortality at 500 g/ha in assay [1] was determined as 100%; in assay [2], 80%; in assay [3], 100%; in assay [4], 70%.
For the compound `O=C(Nc1nc(-c2ccccc2C(F)(F)F)no1)c1cccnc1C(F)(F)F` [Compound I-1-8, 2-(trifluoromethyl)-N-{3-[2-(trifluoromethyl)phenyl]-1,2,4-oxadiazol-5-yl}nicotinamide], the mortality at 500 g/ha came to 100% in assay [5], 90% in assay [6], 100% in assay [3] and 100% in assay [4]. Moreover, the mortality at 100 g/ha in assay [4] came to 100%.
On to `O=C(Nc1nc(-c2c(F)ccc(Br)c2F)no1)c1cccnc1C(F)(F)F` [Compound I-1-12, N-[3-(3-bromo-2,6-difluorophenyl)-1,2,4-oxadiazol-5-yl]-2-(trifluoromethyl)nicotinamide], for which, in assay [3], the mortality at 100 g/ha came to 100% and the mortality at 500 g/ha was determined as 83%. Besides, in assay [4], the mortality at 100 g/ha was determined as 100% and the mortality at 500 g/ha is 100%.
In the case of `N#Cc1c(-c2c(F)cccc2F)nsc1NC(=O)c1cccnc1C(F)(F)F` [Compound I-2-1, N-[4-Cyano-3-(2,6-difluorophenyl)-1,2-thiazol-5-yl]-2-(trifluoromethyl)nicotinamide], the mortality at 100 g/ha in assay [1] turned out to be 100%. Also, the mortality at 500 g/ha in assay [1], in assay [6] and in assay [3] was 100% in each case. In addition, the mortality at 20 ppm in assay [7] came to 90%.
Consider `N#Cc1c(-c2ccccc2Cl)nsc1NC(=O)c1cccnc1Cl` [Compound I-2-6, 2-Chloro-N-[3-(2-chlorophenyl)-4-cyano-1,2-thiazol-5-yl]nicotinamide], for which the mortality at 500 g/ha is 100% in assay [1], 100% in assay [8], 83% in assay [3] and 70% in assay [4].
Regarding `N#Cc1c(-c2ccccc2C(F)(F)F)nsc1NC(=O)c1cccnc1Cl` [Compound I-2-7, 2-Chloro-N-{4-cyano-3-[2-(trifluoromethyl)phenyl]-1,2-thiazol-5-yl}nicotinamide], the mortality at 500 g/ha in assay [1] was found to be 100%; in assay [3], 100%; in assay [4], 90%. Moreover, the mortality at 100 g/ha in assay [4] worked out at 90%.
With `N#Cc1sc(NC(=O)c2cccnc2C(F)(F)F)nc1-c1ccccc1C(F)(F)F` [Compound I-3-2, N-{5-Cyano-4-[2-(trifluoromethyl)phenyl]-1,3-thiazol-2-yl}-2-(trifluoromethyl)nicotinamide], the mortality at 100 g/ha in assay [1], in assay [3] and in assay [4] was 100% each time. Also, the mortality at 500 g/ha in assay [1], in assay [2], in assay [3] and in assay [4] was 100% in each case.
